The test system of one experiment is A549. The experiment in a line: Antiproliferative activity against human A549 cells. The class given is functional, cell-based.
In experiment [1] the target is Bromodomain-containing protein 4 (Homo sapiens) (UniProt O60885). As to the kind of experiment: Inhibition of recombinant human BRD4 (44 to 168) residues expressed in Escherichia coli at 1 uM using H4 peptide as substrate preincubated for 15 mins followed by substrate addition and measured after 60 mins by Alphascreen assay relative to control. Background: In Alpha technology, singlet oxygen from a donor bead excites a nearby acceptor bead.

Experiment [2] addresses T1, Bromodomain-containing protein 9 (Homo sapiens, UniProt Q9H8M2).
T1 sequence (Q9H8M2 whole entry): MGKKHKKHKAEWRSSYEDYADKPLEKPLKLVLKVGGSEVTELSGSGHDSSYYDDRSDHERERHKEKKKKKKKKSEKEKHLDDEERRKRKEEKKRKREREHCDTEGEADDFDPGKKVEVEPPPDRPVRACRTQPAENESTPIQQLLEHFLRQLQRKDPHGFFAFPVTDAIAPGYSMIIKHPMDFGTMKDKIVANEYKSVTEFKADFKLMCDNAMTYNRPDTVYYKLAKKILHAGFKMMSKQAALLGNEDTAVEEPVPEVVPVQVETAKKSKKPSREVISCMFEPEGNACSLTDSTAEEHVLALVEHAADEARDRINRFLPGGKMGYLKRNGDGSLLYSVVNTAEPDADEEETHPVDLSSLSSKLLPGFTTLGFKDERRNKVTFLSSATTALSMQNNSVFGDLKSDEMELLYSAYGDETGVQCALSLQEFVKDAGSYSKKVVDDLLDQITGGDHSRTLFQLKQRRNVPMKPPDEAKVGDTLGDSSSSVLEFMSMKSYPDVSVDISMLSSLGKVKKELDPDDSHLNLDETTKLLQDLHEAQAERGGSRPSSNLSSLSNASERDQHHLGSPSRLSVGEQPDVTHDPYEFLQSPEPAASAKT
As to the kind of experiment: Inhibition of BRD9 (unknown origin) using H4 peptide as substrate preincubated for 15 mins followed by substrate addition and measured after 60 mins by Alphascreen assay.

Experiment [3] has as its target T2, Bromodomain-containing protein 9 (Homo sapiens) (UniProt Q9H8M2).
T2 sequence (whole entry): T1 sequence (Q9H8M2 whole entry)
As to the kind of experiment: Inhibition of BRD9 (unknown origin) at 1 uM using H4 peptide as substrate preincubated for 15 mins followed by substrate addition and measured after 60 mins by Alphascreen assay relative to control.

Another experiment deals with EOL1. As to the kind of experiment: Antiproliferative activity against human EOL-1 cells. Type of experiment: functional, cell-based.

Broadly, the IC50 is the point on the concentration scale where inhibition reaches its midpoint. Low readings indicate higher potency, high ones lower potency. A word on the inhibition: it is the relative decrease from the control value, in per cent.

As for `C/C=C/Cn1cc(-c2ccc(C(=O)N3CCCC3)c(Cl)c2)n2cncc2c1=O`, the values for the half-inhibitory concentration (IC50) (with A549; in experiment [2]; with EOL1) were 8230 nM, 438 nM and 5820 nM, respectively. Besides, the inhibition was -4% in experiment [1] and 87% in experiment [3].

In experiment [2], `CCn1cc(-c2ccc(C(=O)N3CCNCC3)c(Cl)c2)n2cncc2c1=O` returned an IC50 of 802 nM. In addition, in experiment [3], the inhibition stood at 83%.

Regarding `CCCCn1cc(-c2ccc(C(=O)N3CCOCC3)c(Cl)c2)n2cncc2c1=O`, inhibition in experiment [2] was half-maximal at 827 nM (IC50). In experiment [3], the inhibition turned out to be 48%.

As for `C/C=C/Cn1cc(-c2ccc(C(=O)N3CCOCC3)c(Cl)c2)n2cncc2c1=O`, the IC50 is more than 10000 nM in the experiment with A549, 465 nM in experiment [2] and 8170 nM with EOL1. For the same molecule, the figures for the inhibition in experiment [1] and in experiment [3] were -2% and 91%, respectively.

With `C/C=C/Cn1cc(-c2ccc(C(=O)N3CCC(C(N)=O)CC3)c(Cl)c2)n2cncc2c1=O`, the IC50 in the experiment on A549 turned out to be 7150 nM; in experiment [2] it was 262 nM; with EOL1, 3420 nM. The inhibition is -5% in experiment [1] and 94% in experiment [3].

`CCn1cc(-c2ccc(C(=O)NC3CCS(=O)(=O)CC3)c(Cl)c2)n2cncc2c1=O` returned an IC50 in experiment [2] of 1020 nM. For the same molecule, the inhibition in experiment [3] came to 75%.

As to `CCCn1cc(-c2ccc(C(=O)NC3CCS(=O)(=O)CC3)c(Cl)c2)n2cncc2c1=O`, in experiment [3], the inhibition amounted to 23%.

For the molecule `Cn1cc(-c2ccc(C(=O)N3CCOCC3)cc2)n2cncc2c1=O`, half-maximal inhibition in experiment [2] (IC50) was put at 2330 nM. Further, the inhibition in experiment [3] turned out to be 18%.

As to `CCCCn1cc(-c2ccc(C(=O)N3CCNCC3)c(Cl)c2)n2cncc2c1=O`, the IC50 in experiment [2] stood at 730 nM. Moreover, the inhibition in experiment [3] stood at 68%.

As for `Cn1cc(-c2ccc(C(=O)N3CCOCC3)c(Cl)c2)n2cncc2c1=O`, the IC50 in experiment [2] was 1500 nM. Further, the inhibition in experiment [3] amounted to 27%.

In the case of `CCOC(=O)Nc1cc(-c2ccc(C)c(NS(C)(=O)=O)c2)nn2c(C)nnc12`, the inhibition in experiment [3] was 87 to 90%.

Turning to `CCCn1cc(-c2ccc(C(=O)N3CCNCC3)c(Cl)c2)n2cncc2c1=O`, the IC50 in experiment [2] was 930 nM. Further, in experiment [3], the inhibition was 86%.

For `CCS(=O)(=O)Nc1ccc(Oc2ccc(F)cc2)c(-c2cn(C)c(=O)c3cncn23)c1`, the inhibition in experiment [1] is 100%.

On to `Cn1cc(-c2cccc(C(F)(F)F)c2)n2cncc2c1=O`, for which, in experiment [2], inhibition was half-maximal at 7410 nM (IC50). Moreover, the inhibition in experiment [3] came to 6%.

In experiment [2], `C/C=C/Cn1cc(-c2ccc(C(=O)N3CCOCC3)c(F)c2)n2cncc2c1=O` registered a concentration for half-maximal inhibition (IC50) of 967 nM. For the same molecule, in experiment [3], the inhibition worked out at 38%.

On to `C/C=C/Cn1cc(-c2ccc(C(=O)N3CCN(S(C)(=O)=O)CC3)cc2Cl)n2cncc2c1=O`, for which the half-maximal inhibitory concentration (IC50) in experiment [2] came to 840 nM. Besides, the inhibition in experiment [3] is 52%.

As for `CCn1cc(-c2ccc(C(=O)N3CCOCC3)c(Cl)c2)n2cncc2c1=O`, the inhibition in experiment [3] stood at 5%.

For the molecule `Cn1cc(-c2ccccc2)n2cncc2c1=O`, the IC50 in experiment [2] came to 7210 nM. Besides, the inhibition in experiment [3] amounted to 7%.

Consider `C/C=C/Cn1cc(-c2ccc(C(=O)N3CCN(S(C)(=O)=O)CC3)c(Cl)c2)n2cncc2c1=O`, for which the IC50 with A549 was 6630 nM; in experiment [2], 103 nM; with EOL1, 2290 nM. For the same molecule, the inhibition was -5% in experiment [1] and 94% in experiment [3].

`C/C=C/Cn1cc(-c2ccc(C(=O)N3CCOCC3)cc2Cl)n2cncc2c1=O` had an IC50 in experiment [2] of 763 nM. In addition, the inhibition in experiment [3] was 42%.

In experiment [2], `C/C=C/Cn1cc(-c2ccc(C(=O)N3CCN(S(C)(=O)=O)CC3)c(F)c2)n2cncc2c1=O` yielded an IC50 of 652 nM. Also, in experiment [3], the inhibition worked out at 71%.

Take `C/C=C/Cn1cc(-c2ccc(C(=O)N3CCNCC3)c(Cl)c2)n2cncc2c1=O`: the IC50 worked out at 6120 nM in the experiment with A549, 35 nM in experiment [2] and 1760 nM in the experiment on EOL1. The inhibition in experiment [1] is -6%; in experiment [3], 99%.

As for `C/C=C/Cn1cc(-c2ccc(C(=O)NC3CCS(=O)(=O)CC3)c(Cl)c2)n2cncc2c1=O`, the IC50 was more than 10000 nM in the experiment with A549, 480 nM in experiment [2] and 5340 nM in the experiment with EOL1. Moreover, the inhibition in experiment [1] was -5%; in experiment [3] it was 100%.

As for `C/C=C/Cn1cc(-c2ccc(C(=O)N3CCN(C)CC3)c(Cl)c2)n2cncc2c1=O`, the IC50 in the experiment on A549 is more than 10000 nM; in experiment [2] it was 557 nM; in the experiment on EOL1 it was 7030 nM. Also, the inhibition is -3% in experiment [1] and 80% in experiment [3].

Turning to `COc1cccc(-c2cn(C)c(=O)c3cncn23)c1`, half-maximal inhibition in experiment [2] (IC50) was put at 3010 nM. Moreover, the inhibition in experiment [3] amounted to 16%.

For the molecule `CCCCn1cc(-c2ccc(C(=O)NC3CCS(=O)(=O)CC3)c(Cl)c2)n2cncc2c1=O`, in experiment [3], the inhibition was 21%.

These data come from ChEMBL document CHEMBL4480431, “Design, synthesis and biological evaluation of imidazo[1,5-a]pyrazin-8(7H)-one derivatives as BRD9 inhibitors” (Bioorg Med Chem, 2019).
